Data from US11116722B2, “Antifungal dry powders” (priority 2016, dated 2021).

System: Calu-3 cell line

Rate of Diffusion (human, pH 7.4): 1.81 cm/s
SMILES: CCC(C)n1ncn(-c2ccc(N3CCN(c4ccc(OCC5COC(Cn6cncn6)(c6ccc(Cl)cc6Cl)O5)cc4)CC3)cc2)c1=O (centres unmarked) [Pure ITZ, Itraconazole]
dissolution and permeability kinetics / rate of diffusion (in words): slower dissolution and permeability kinetics than the other formulations
